Patent US5169780A, “Enantiomeric enrichment and stereoselective synthesis of chiral amines” (Celgene Corporation, priority 1990, dated 1992)

Assays:
β-alanine transaminase = conditions: relative activities, Nakano et al. 1977; cited from earlier work
[1] = system: -aminobutyrate transaminase; conditions: relative activities, Nakano et al. 1977; cited from earlier work
[2] = solvent-to-aqueous phase partition coefficient of the ketone; assay type: physicochemical; conditions: heptane as organic solvent
Excerpt: The organic solvent will normally be one in which the ketone produced is soluble to a greater degree than in water. Solvents in which the ketone has a solvent-to-aqueous phase partition coefficient greater than one are suitable and those with coefficients greater than 8 are preferred. Examples of these are liquid hydrocarbons such as benzene or hexane, halogenated hydrocarbons such as chloroform, dichloromethane or, carbon tetrachloride, various fluorocarbons such as freon, long-chain alcohols such as octanol or decanol, esters such as ethyl acetate, or triglyceride oils, A solvent which typifies this is heptane which has a partition coefficient of ≈24. Supercritical fluids such as supercritical CO2 may also be used.

SMILES	activity of β-alanine transaminase on the substrate (β-alanine transaminase)	activity of -aminobutyrate transaminase on the substrate [1]	partition coefficient (ketone, solvent-to-aqueous phase) [2]
NCCCC(=O)O [-aminobutyrate]	43	100	–
CCCCCCC [heptane]	–	–	≈ 24
NCCC(=O)O [β-alanine]	100	3	–
